Laboratory results as given in PMC9743095 (Journal of Medicinal Chemistry, 2022).
Read-outs that look alike come from different tables or passages of the source.

Columns and labels:
Plasma stability [1] = format: in vitro ADME, beagle dog; conditions: dog plasma, with or without EHNA
Description: (§1) Plasma samples (10 mL of human, beagle dog, mouse, or rats from Sera laboratories, U.K.) were treated with and without 1 μM of EHNA, after which 20 μM concentration of each drug (3′dA and ProTides) was added and incubated for 2 h at 37 °C with 5% CO2. After incubation, 100 μL of each sample was taken and 300 μL of 100% methanol was added and left on ice for 30 min. After 30 min, the mixture was centrifuged (14 000 rpm, 4 °C, 10 min), and the supernatant was transferred to new tubes and evaporated under SpeedVac. Then, the dried extract was reconstituted in 100 μL of 10% acetonitrile, then transferred to LC-MS vials, and 10 μL was injected into the UPLC-MS/MS system.

CRL cell line = assay: ATP viability assay; format: cell-based; conditions: for CC50: Homo sapiens, read-out: LC50
Description: (§2) HL-60 (ATCC CCL-240), K562 (ATCC CCL-243), CCRF-CEM (ATCC CRM-CCL-119), and RL (ATCC CRL-2261) leukemia cell lines were obtained from the American Type Culture Collection (ATCC), Middlesex. HL-60 and K562 cell lines are deoxynucleotidyl transferase-negative (TdT^–ve), whereas CCRF-CEM cell line is TdT^+ve. They were cultured in RPMI-1640 medium (Sigma-Aldrich, U.K.), which were supplemented with 10% fetal bovine serum (FBS) (PAA Laboratories), 1% amphotericin B (5.5 mL), and 1% penicillin/streptomycin (5.5 mL) (PAA Laboratories) and grown in flasks at 37 °C in an incubator with 5% CO2. For the studies with inhibitors, the cells were treated with 10 μM nitrobenzylthioinosine (NBTI, hENT inhibitor) or 1 μM EHNA (EHNA hydrochloride) or A-134974 (A-134974 dihydrochloride hydrate) and left for 5 min before adding the drug. The cells were then incubated for 2 h at 37 °C with 5% CO2.
(§3) The amount of ATP was used as a measurement of cell number and cell viability. ATP ViaLightTM plus assay kit (Lonza: Product No. LT07-121) to detect ATP in cells treated in luminescence compatible 96-well plates (initial concentration of cells was 1 × 10^4 cells/well) with Cordycepin and ProTides at concentrations of 0, 0.1, 0.5, 1, 5, and 10 μM, followed by incubation for 72 h at 37 °C in an incubator with 5% CO2. For inhibitor studies, 10 μM NBTI or 1 μM EHNA or A-134974 was added and left for 5 min before adding the drugs. After incubation, 50 μL of cell lysis reagent was added to the 96-well plates to release the intracellular ATP, followed by 100 μL of ATP monitoring reagent (AMR). The luminescent values of each well were determined using FLUOstar OPTIMA microplate reader (BMG Labtech), which converted ATP into light using luciferase enzyme. Therefore, the amount of luminescence produced was directly proportional to the amount of ATP.

K562 cell line = assay: ATP viability assay; format: cell-based; conditions: Homo sapiens
Description: as §2, §3

HL-60 cell line = assay: ATP viability assay; format: cell-based; conditions: Homo sapiens
Description: as §2, §3

CEM cell line = assay: ATP viability assay; format: cell-based; conditions: for CC50: Homo sapiens, CCRF-CEM, read-out: LC50
Description: as §2, §3

[2] = molecular target: T1, adenosine deaminase (ADA) (Bos taurus, UniProt P56658); assay: Adenosine deaminase assay (UV); format: in vitro ADME, Bovine; conditions: 62.5 μM
T1 construct: purchased Sigma-Aldrich 59722
T1 sequence (P56658 1-363): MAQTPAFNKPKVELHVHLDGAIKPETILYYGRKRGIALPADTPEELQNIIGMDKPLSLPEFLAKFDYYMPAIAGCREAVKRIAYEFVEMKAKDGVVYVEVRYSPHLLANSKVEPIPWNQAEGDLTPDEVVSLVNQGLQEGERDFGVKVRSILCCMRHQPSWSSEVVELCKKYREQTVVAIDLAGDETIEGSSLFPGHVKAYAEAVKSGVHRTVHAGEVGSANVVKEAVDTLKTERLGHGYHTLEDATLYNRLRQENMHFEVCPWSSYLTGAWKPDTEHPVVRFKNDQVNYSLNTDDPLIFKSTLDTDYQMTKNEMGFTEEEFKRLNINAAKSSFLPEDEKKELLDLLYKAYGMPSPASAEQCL
Description: Bovine recombinant adenosine deaminase (ADA, EC:3.5.4.4) was purchased from Sigma (Sigma-Aldrich, product number 59722). The ADA suspension (containing >2 U/mL) was aliquoted into 55 μL portions and kept at −20 °C. Before use, a 55 μL sample was thawed and 1 mL of phosphate buffer (0.1 N, pH 7.4) was added. The suspension was filtered through a 0.2 μm filter to remove precipitates that could interfere with the absorbance measurements. The clear supernatant was used for the degradation experiments. The experiments were conducted in UV transparent cuvettes (Sigma-Aldrich, code: Z637092) using an Envision microplate reader (PerkinElmer). […] Scans of the absorption spectrum were taken between 220 and 350 nm with 2 nm resolution every 0.1 min over a period of 10 min to 12 h. One sample containing only ADA was also prepared, and this was subtracted to obtain the spectrum over time for substrates.

Plasma stability [3] = format: in vitro ADME; conditions: mouse plasma
Description: as §1

[4] = Metabolic stability in cryopreserved human hepatocytes; format: in vitro ADME; conditions: for hepatocyte CLint at 1 μM: pH 7.3, read-out: Clint (intrinsic clearance)
Description: The assay was contracted and performed by Cerep (Seattle, WA Laboratories, 15318 N. E. 95th Street Redmond, WA, 98052) according to the published procedure (Cerep ref 1432). Pooled cryopreserved hepatocytes were thawed, washed, and resuspended in Krebs–Heinslet buffer (pH 7.3). The reaction was initiated by adding the test compound (1 μM final concentration) into cell suspension and incubated in a final volume of 100 μL on a flat-bottom 96-well plate for 0 and 60 min, respectively, at 37 °C/5% CO2. The reaction was stopped by adding 100 μL of acetonitrile into the incubation mixture. Samples were then mixed gently and briefly on a plate shaker, transferred completely to a 0.8 mL V-bottom 96-well plate, and centrifuged at 2550g for 15 min at room temperature. Each supernatant (150 μL) was transferred to a clean cluster tube, followed by high-performance liquid chromatography–tandem mass spectrometry (HPLC-MS/MS) analysis on a Thermo Electron triple quadrupole system.

[5] = pH 7.3, read-out: t1/2 (half-life)

SMILES	stability in plasma (Plasma stability [1])	CC50 (CRL cell line; 72 h)	CC50 (CRL cell line)	CC50 (K562 cell line; K562, 72 h, read-out: LC50)	CC50 (HL-60 cell line; HL-60, 72 h, read-out: LC50)	CC50 (CEM cell line; 72 h)	CC50 (CEM cell line)	other results
Nc1ncnc2c1ncn2[C@@H]1O[C@H](CO)C[C@H]1O [3′-dA, 3′-Deoxyadenosine, reference compound]	like those found in human plasma	24.5 µM	7.3 µM	10.9 µM	11.4 µM	19.5 µM	11.5 µM	improvement of LC50 on inhibition of ADA with EHNA (CRL cell line; CRL): 2 fold; improvement of LC50 on inhibition of ADA with EHNA (CEM cell line; CEM): 16 fold; time to complete metabolic deamination by ADA ([2]; bovine, pH 7.4): up to 2 minutes; half-life at 20 μM (Plasma stability [3]): 25 min
C[C@H](NP(=O)(OC[C@@H]1C[C@@H](O)[C@H](n2cnc3c(N)ncnc32)O1)Oc1ccccc1)C(=O)OCc1ccccc1 (stereo partly drawn) [Compound 7a, (Rp)- and (Sp)-3′-Deoxyadenosine 5′-O-phenyl-(benzoxy-L-alaninyl)-phosphate]	like those found in human plasma	2.1 µM	3.6 µM	2.4 µM	4.6 µM	0.87 µM	1.4 µM	LC50 change on ADA inhibition by EHNA (CEM cell line; CEM): did not lead to any LC50 changes; UV absorbance spectra in absence and presence of ADA ([2]; ADA from calf, phosphate buffer pH 7.4, 25 °C, 12 h): the two lines are superimposed; shift of the maximum absorption after ADA addition (deamination) ([2]; up to 2 h): no shift of the maximum absorption at 265 nm; hepatocyte CLint at 1 μM ([4]; pooled cryopreserved hepatocytes): 22.6 µL/min/1e6 cells; half-life at 1 h, 1 µM ([4]; pooled cryopreserved hepatocytes, pH 7.3, read-out: t1/2 (half-life)): 48.1 min; concentration detected after 30 s of incubation (Plasma stability [3]): 0.5 ng/mL
CCOC(=O)CCc1ccccc1OP(=O)(N[C@@H](C)C(=O)OCc1ccccc1)OC[C@@H]1C[C@@H](O)[C@H](n2cnc3c(N)ncnc32)O1 (stereo partly shown) [Compound 7e]		3.4 µM				4.3 µM		CC50 (K562 cell line; K562, Table S2, no inhibitors, 72 h, read-out: LC50 (the source's name)): 6.3 µM; CC50 (HL-60 cell line; HL-60, Table S2, no inhibitors, 72 h, read-out: LC50 (the source's name)): 8.3 µM; hepatocyte CLint at 1 μM [4]: 41.1 µL/min/1e6 cells; half-life at 1 μM [4, 5]: 26 min; half-life at 1 h, 1 µM [4, 5]: 25.6 min
